BindingDB's records for doi:10.1016/j.bmc.2008.03.004 (Florida Atlantic University, 2009)

Target: Collagenase 3 (Homo sapiens, UniProt P45452)
Test: Inhibition of human recombinant MMP13 expressed in Escherichia coli

- IC50: > 40 µM
SMILES: COc1cc(-n2nc(C)c3c2OC(=N)C(C#N)C3c2ccccc2)c(Cl)c(Br)c1O (stereo unspecified) [6-amino-1-(3-bromo-2-chloro-4-hydroxy-5-methoxyphenyl)-3-methyl-4-phenyl-1,4-dihydropyrano[2,3-c]pyrazole-5-carbonitrile]
